Columns and labels:
Type in all cases: biochemical
[1] = target: T1, ABHD6 (Mus musculus, UniProt Q8R2Y0); assay: In vitro competitive activity-based protein profiling (mouse), ABHD6; conditions: 1 μM inhibitor, mouse brain membrane fraction or cell lysates; read-out: ABHD6 % inh. 1 μM (mouse)
T1 construct: Proteomes (mouse brain membrane fraction or cell lysates); from tissue; host or cells: mouse brain membrane fraction or cell lysates
T1 sequence (Q8R2Y0 1-336): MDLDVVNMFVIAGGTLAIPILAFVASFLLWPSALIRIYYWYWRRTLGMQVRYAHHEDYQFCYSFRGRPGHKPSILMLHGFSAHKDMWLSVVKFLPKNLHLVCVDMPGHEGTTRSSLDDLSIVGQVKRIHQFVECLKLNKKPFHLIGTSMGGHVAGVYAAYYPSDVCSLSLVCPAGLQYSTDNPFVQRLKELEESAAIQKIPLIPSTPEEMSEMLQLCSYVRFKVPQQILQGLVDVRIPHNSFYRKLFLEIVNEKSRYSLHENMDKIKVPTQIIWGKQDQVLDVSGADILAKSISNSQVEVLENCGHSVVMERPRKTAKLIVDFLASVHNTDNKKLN
Experimental: (§1) In Vitro Competitive Activity-Based Protein Profiling (Mouse).
(§2) Proteomes (mouse brain membrane fraction or cell lysates) (50 μL, 1.0 mg/mL total protein concentration) were preincubated with varying concentrations of inhibitors at 37° C. After 30 min, FP-Rh (1.0 μL, 50 μM in DMSO) was added and the mixture was incubated for another 30 min at 37° C. Reactions were quenched with SDS loading buffer (50 μL-4×) and run on SDS-PAGE. Following gel imaging, serine hydrolase activity was determined by measuring fluorescent intensity of gel bands corresponding to MAGL and ABHD6 using ImageJ 1.49 k software. Data from this assay is shown in Table 1 (% inhibition at 1 μM).

[2] = target: T2, ABHD6 (Homo sapiens, UniProt Q9BV23); assay: In vitro competitive activity-based protein profiling (human), ABHD6; conditions: human PC3
T2 construct: Proteomes (human prefrontal cortex or cell membrane fractions); endogenous in cells; human prefrontal cortex
T2 sequence (Q9BV23 1-337): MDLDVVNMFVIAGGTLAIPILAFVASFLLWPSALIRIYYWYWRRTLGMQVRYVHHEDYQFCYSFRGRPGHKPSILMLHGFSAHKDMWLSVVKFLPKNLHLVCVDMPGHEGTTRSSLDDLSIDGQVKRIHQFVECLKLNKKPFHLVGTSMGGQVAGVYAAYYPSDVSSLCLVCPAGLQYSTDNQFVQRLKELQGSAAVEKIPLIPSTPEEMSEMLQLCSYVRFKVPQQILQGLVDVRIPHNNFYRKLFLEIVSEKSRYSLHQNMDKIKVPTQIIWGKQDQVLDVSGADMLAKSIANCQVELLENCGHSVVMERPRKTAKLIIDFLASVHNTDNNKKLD
Experimental: (§3) In Vitro Competitive Activity-Based Protein Profiling (Human).
(§4) Proteomes (human prefrontal cortex or cell membrane fractions) (50 μL, 1.0-2.0 mg/mL total protein concentration) were preincubated with varying concentrations of inhibitors at 37° C. After 30 min, FP-Rh or JW912 (1.0 μL, 50 μM in DMSO) was added and the mixture was incubated for another 30 min at room temperature. Reactions were quenched with SDS loading buffer (15 μL-4×) and run on SDS-PAGE. Following gel imaging, serine hydrolase activity was determined by measuring fluorescent intensity of gel bands corresponding to MAGL and ABHD6 using ImageJ 1.49 k software.

[3] = target: T3, MAGL (Mus musculus, UniProt O35678); assay: In vitro competitive activity-based protein profiling (mouse), MAGL; conditions: for inhibition at 1 µM: 1 μM inhibitor, mouse brain membrane fraction or cell lysates, read-out: MAGL % inh. 1 μM (mouse)
T3 construct: Proteomes (mouse brain membrane fraction or cell lysates); from tissue; host or cells: mouse brain membrane fraction or cell lysates
T3 sequence (O35678 1-303): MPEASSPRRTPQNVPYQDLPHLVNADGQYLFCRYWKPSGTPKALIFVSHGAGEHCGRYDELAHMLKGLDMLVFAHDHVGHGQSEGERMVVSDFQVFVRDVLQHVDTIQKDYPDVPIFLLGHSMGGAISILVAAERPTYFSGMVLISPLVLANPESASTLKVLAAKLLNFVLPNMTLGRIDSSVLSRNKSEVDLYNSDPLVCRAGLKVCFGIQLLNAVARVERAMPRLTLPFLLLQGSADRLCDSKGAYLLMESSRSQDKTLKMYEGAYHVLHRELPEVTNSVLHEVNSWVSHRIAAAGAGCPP
Experimental: as §1, §2

[4] = target: T4, MAGL (Homo sapiens, UniProt Q99685); assay: In vitro competitive activity-based protein profiling (human), MAGL; conditions: for inhibition at 1 µM: 1 μM inhibitor, human proteome, 30 min preincubation at 37° C, read-out: MAGL % inh. 1 μM (human); for IC50: human PC3
T4 construct: Proteomes (human prefrontal cortex or cell membrane fractions); from tissue
T4 sequence (Q99685 1-303): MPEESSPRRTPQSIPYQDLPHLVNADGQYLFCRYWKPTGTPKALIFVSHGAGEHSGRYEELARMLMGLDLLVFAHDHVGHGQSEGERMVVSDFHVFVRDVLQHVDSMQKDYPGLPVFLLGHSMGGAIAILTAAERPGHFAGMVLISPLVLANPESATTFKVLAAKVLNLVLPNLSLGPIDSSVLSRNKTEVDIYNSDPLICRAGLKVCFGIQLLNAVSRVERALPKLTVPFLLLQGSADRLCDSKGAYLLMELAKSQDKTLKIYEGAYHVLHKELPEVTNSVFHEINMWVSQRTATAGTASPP
Experimental: as §3, §4

| Structure (SMILES) | inhibition at 1 µM [1] [%] | IC50 [2] [µM] | inhibition at 1 µM [3] [%] | inhibition at 1 µM [4] [%] | IC50 [4] [µM] | IC50 ([3]; mouse proteome) [µM] |
| --- | --- | --- | --- | --- | --- | --- |
| O=C(O)CN1CCN(C(=O)c2cc(C(F)(F)F)ccc2CN2CCN(C(=O)OC(C(F)(F)F)C(F)(F)F)CC2)CC1 [Example 28, 2-(4-(2-((4-(((1,1,1,3,3,3-Hexafluoropropan-2-yl)oxy)carbonyl)piperazin-1-yl)methyl)-5-(trifluoromethyl)benzoyl)piperazin-1-yl)acetic Acid] | 25 to 50 | 1 to 10 | ≥ 75 | ≥ 75 | 0.1 to 1 |  |
| O=C(O)Cn1ccc(-c2ccccc2CN2CCN(C(=O)OC(C(F)(F)F)C(F)(F)F)CC2)n1 [Example 11, 2-(3-(2-((4-(((1,1,1,3,3,3-Hexafluoropropan-2-yl)oxy)carbonyl)piperazin-1-yl)methyl)phenyl)-1H-pyrazol-1-yl)acetic Acid] | 0 to 25 | 1 to 10 | ≥ 75 | ≥ 75 | 0.1 to 1 |  |
| O=C(O)CN1CCCC1C1CCN(c2cc(Cl)ccc2CN2CCN(C(=O)OC(C(F)(F)F)C(F)(F)F)CC2)CC1 (centres unmarked) [Example 34, 2-(2-(1-(5-Chloro-2-((4-(((1,1,1,3,3,3-hexafluoropropan-2-yl)oxy)carbonyl)piperazin-1-yl)methyl)phenyl)piperidin-4-yl)pyrrolidin-1-yl)acetic Acid] | 50 to 75 | 1 to 10 | ≥ 75 | ≥ 75 | ≤ 0.1 |  |
| O=C(OC(C(F)(F)F)C(F)(F)F)N1CCN(Cc2ccc(C(F)(F)F)c(C3(C(=O)O)CCCC3)c2)CC1 [Example 37, 1-(5-((4-(((1,1,1,3,3,3-hexafluoropropan-2-yl)oxy)carbonyl)piperazin-1-yl)methyl)-2-(trifluoromethyl)phenyl)cyclopentane-1-carboxylic acid] | ≥ 75 | 0.1 to 1 | ≥ 75 | ≥ 75 | ≤ 0.1 |  |
| Cc1ccc(CN2CCN(C(=O)OC(C(F)(F)F)C(F)(F)F)CC2)c(C2(C(=O)O)CCCC2)c1 [Example 14, 1-(2-((4-(((1,1,1,3,3,3-Hexafluoropropan-2-yl)oxy)carbonyl)piperazin-1-yl)methyl)-5-methylphenyl)cyclopentane-1-carboxylic Acid] | 0 to 25 | 1 to 10 | ≥ 75 | ≥ 75 | ≤ 0.1 |  |
| O=C(OC(C(F)(F)F)C(F)(F)F)N1CCN(Cc2cc(C(F)(F)F)cc(C3(C(=O)O)CCCC3)c2)CC1 [Example 1, 1-(3-((4-(((1,1,1,3,3,3-Hexafluoropropan-2-yl)oxy)carbonyl)piperazin-1-yl)methyl)-5-(trifluoromethyl)phenyl)cyclopentane-1-carboxylic Acid] | ≥ 75 | 0.1 to 1 | ≥ 75 | ≥ 75 | ≤ 0.1 |  |
| O=C(O)CN1CC2(CCN(c3cc(Cl)ccc3CN3CCN(C(=O)OC(C(F)(F)F)C(F)(F)F)CC3)CC2)C1 [Example 47, 2-(7-(5-chloro-2-((4-(((1,1,1,3,3,3-hexafluoropropan-2-yl)oxy)carbonyl)piperazin-1-yl)methyl)phenyl)-2,7-diazaspiro[3.5]nonan-2-yl)acetic acid] | 0 to 25 | 1 to 10 | ≥ 75 | ≥ 75 | ≤ 0.1 | ≤ 0.1 |

The next lines start with the values.

| inhibition at 1 µM [1] [%] | IC50 [2] [µM] | inhibition at 1 µM [3] [%] | inhibition at 1 µM [4] [%] | IC50 [4] [µM] | IC50 ([3]; mouse proteome) [µM] | Structure (SMILES) |
| --- | --- | --- | --- | --- | --- | --- |
| ≥ 75 | 0.1 to 1 | ≥ 75 | ≥ 75 | ≤ 0.1 |  | CCC1(C(=O)O)CCN(c2cc(CN3CCN(C(=O)OC(C(F)(F)F)C(F)(F)F)CC3)cc(C(F)(F)F)c2)CC1 [Example 53, 4-ethyl-1-(3-((4-(((1,1,1,3,3,3-hexafluoropropan-2-yl)oxy)carbonyl)piperazin-1-yl)methyl)-5-(trifluoromethyl)phenyl)piperidine-4-carboxylic acid] |
| 0 to 25 | 1 to 10 | ≥ 75 | ≥ 75 | 0.1 to 1 |  | O=C(O)C1COCCN1c1cc(C(F)(F)F)ccc1CN1CCN(C(=O)OC(C(F)(F)F)C(F)(F)F)CC1 (centres unmarked) [Example 71, 4-(2-((4-(((1,1,1,3,3,3-hexafluoropropan-2-yl)oxy)carbonyl)piperazin-1-yl)methyl)-5-(trifluoromethyl)phenyl)morpholine-3-carboxylic acid] |
| ≥ 75 | 1 to 10 | ≥ 75 | ≥ 75 | ≤ 0.1 |  | O=C(O)C1CCN(c2cc(C(F)F)ccc2CN2CCN(C(=O)OC(C(F)(F)F)C(F)(F)F)CC2)CC1 [Example 72, 1-(5-(difluoromethyl)-2-((4-(((1,1,1,3,3,3-hexafluoropropan-2-yl)oxy)carbonyl)piperazin-1-yl)methyl)phenyl)piperidine-4-carboxylic acid] |
| 25 to 50 | 0.1 to 1 | ≥ 75 | ≥ 75 | ≤ 0.1 |  | O=C(O)[C@H]1CCCN(c2cc(C(F)(F)F)ccc2CN2CCN(C(=O)OC(C(F)(F)F)C(F)(F)F)CC2)C1 [Example 80, (S)-1-(2-((4-(((1,1,1,3,3,3-hexafluoropropan-2-yl)oxy)carbonyl)piperazin-1-yl)methyl)-5-(trifluoromethyl)phenyl)piperidine-3-carboxylic acid] |
| 0 to 25 | ≤ 0.1 | ≥ 75 | ≥ 75 | ≤ 0.1 |  | CC1(C(=O)O)CCCN(c2cc(CN3CCN(C(=O)OC(C(F)(F)F)C(F)(F)F)CC3)cc(C(F)(F)F)c2)C1 (centres unmarked) [Example 56, 1-(3-((4-(((1,1,1,3,3,3-hexafluoropropan-2-yl)oxy)carbonyl)piperazin-1-yl)methyl)-5-(trifluoromethyl)phenyl)-3-methylpiperidine-3-carboxylic acid] |
| 50 to 75 | 1 to 10 | ≥ 75 | ≥ 75 | ≤ 0.1 |  | O=C(O)C1CCN(c2cc(F)ccc2CN2CCN(C(=O)OC(C(F)(F)F)C(F)(F)F)CC2)CC1 [Example 73, 1-(5-fluoro-2-((4-(((1,1,1,3,3,3-hexafluoropropan-2-yl)oxy)carbonyl)piperazin-1-yl)methyl)phenyl)piperidine-4-carboxylic acid] |
| 0 to 25 | 1 to 10 | ≥ 75 | ≥ 75 | ≤ 0.1 |  | O=C(O)CNC1CCN(c2cc(C(F)(F)F)ccc2CN2CCN(C(=O)OC(C(F)(F)F)C(F)(F)F)CC2)CC1 [Example 49, (1-(2-((4-(((1,1,1,3,3,3-hexafluoropropan-2-yl)oxy)carbonyl)piperazin-1-yl)methyl)-5-(trifluoromethyl)phenyl)piperidin-4-yl)glycine] |
